Test results reported in PubChem BioAssay AID588630 (NMMLSC, 2011).
Values joined by “and” are separate entries in the source; they are usually repeats but may differ in a detail not shown here. Identical values can stand only once. Active and inactive are the calls of the source.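 The calls were made as follows: active = fitted potency at or below 10 µM with a response change of at least 30% across doses and an acceptable curve fit; inactive = the rest.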

Biological target: GTPase HRas (Homo sapiens) (UniProt P01112)
Assay: H-Ras wildtype GTP-binding inhibitors, SAR follow-up, biochemical, GST-H-Ras beads, Bodipy-FL-GTP, flow cytometry, multiplex, round 2 (AID 588630)
Details: not given

Sequence of GTPase HRas (Homo sapiens) (P01112 whole entry, looked up): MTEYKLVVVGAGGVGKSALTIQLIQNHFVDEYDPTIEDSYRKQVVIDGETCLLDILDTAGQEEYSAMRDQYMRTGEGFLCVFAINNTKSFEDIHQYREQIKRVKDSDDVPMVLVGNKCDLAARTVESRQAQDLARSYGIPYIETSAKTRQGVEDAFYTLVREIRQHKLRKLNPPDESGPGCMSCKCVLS

SMILES | EC50
CC1(C)Cc2c(sc(NC(=S)NC(=O)c3ccc(Br)cc3)c2C(=O)O)CO1 | 0.597 µM
COc1ccccc1C(=O)NC(=S)Nc1sc2c(c1C(=O)O)CC(C)(C)OC2 | 1.32 µM
CC1(C)Cc2c(sc(NC(=S)NC(=O)C3CCCCC3)c2C(=O)O)CO1 | 0.625 µM
Cc1ccccc1C(=O)NC(=S)Nc1sc2c(c1C(=O)O)CC(C)(C)OC2 | 0.444 µM
COc1ccc(C(=O)NC(=S)Nc2sc3c(c2C(=O)O)CC(C)(C)OC3)cc1 | 0.25 µM
CC1(C)Cc2c(sc(NC(=O)NC(=O)c3ccccc3)c2C(=O)O)CO1 | 0.725 µM
Cc1cccc(C(=O)NC(=S)Nc2sc3c(c2C(=O)O)CC(C)(C)OC3)c1 | 1.39 µM
CC1(C)Cc2c(sc(NC(=S)NC(=O)c3ccccc3Br)c2C(=O)O)CO1 | 1.78 µM
Cc1ccc(C(=O)NC(=S)Nc2sc3c(c2C(=O)O)CC(C)(C)OC3)cc1 | 0.193 µM
CC1(C)Cc2c(sc(NC(=S)NC(=O)c3cccc(F)c3)c2C(=O)O)CO1 | 0.436 µM
CC1(C)Cc2c(sc(NC(=S)NC(=O)c3ccccc3F)c2C(=O)O)CO1 | 0.359 µM
CC1Cc2c(sc(NC(=S)NC(=O)c3ccccc3)c2C(=O)O)CO1 (centres undefined) | 0.201 µM
COc1cccc(C(=O)NC(=S)Nc2sc3c(c2C(=O)O)CC(C)(C)OC3)c1 | 0.275 µM
O=C(NC(=S)Nc1sc2c(c1C(=O)O)CCOC2)c1ccccc1 | 0.106 µM and 0.242 µM

Now from value to compound:

EC50 | SMILES
0.098 µM | CC1(C)Cc2c(sc(NC(=S)NC(=O)c3ccc(F)cc3)c2C(=O)O)CO1
0.079 µM | CC1(C)Cc2c(sc(NC(=S)NC(=O)c3ccco3)c2C(=O)O)CO1
0.035 µM | CC1(C)Cc2c(sc(NC(=S)NC(=O)c3cccs3)c2C(=O)O)CO1
0.037 µM | CCC1(C)Cc2c(sc(NC(=S)NC(=O)c3ccccc3)c2C(=O)O)CO1 (centres undefined)
0.14 µM | CC(C)(C)C1Cc2c(sc(NC(=S)NC(=O)c3ccccc3)c2C(=O)O)CO1 (centres undefined)
0.043 µM | CC1(C)CCc2sc(NC(=S)NC(=O)c3ccccc3)c(C(=O)O)c2C1
0.031 µM | O=C(NC(=S)Nc1sc2c(c1C(=O)O)CC1(CCCC1)OC2)c1ccccc1
0.02 µM | CC1(C)Cc2c(sc(NC(=S)NC(=O)c3ccccc3)c2C(=O)O)CO1

Same assay, conditions: at 100 µM (top of the series)

% response (remaining GTP binding) | SMILES
inactive | CC1(C)Cc2c(sc(NC(=S)NC(=O)c3cccc(Br)c3)c2C(=O)O)CO1
inactive | CC1(C)Cc2c(sc(NC(=S)Nc3ccccc3)c2C(=O)O)CO1
